The values that follow come from ChEMBL document CHEMBL5550202, “Rationally Designed Highly Potent NKT Cell Agonists with Different Cytokine Selectivity through Hydrogen-Bond Interaction” (J Med Chem, 2024).

The structures appear in SMILES notation. The source made the active and inactive calls. The rule behind the calls is not given here.

In data set [1] the test system is Splenocyte. The data set can be described thus: Cytotoxicity against C57BL/6 mouse splenocytes assessed as reduction in cell viability at 10 to 1000 nM treated as liposomal formulation measured after 72 hrs by MTT assay. It counts as toxicity, cell-based. The note with it: 1 µM, dose 10-1000 nM.
The test system of data set [2] is Splenocyte. The data set can be described thus: Induction of Th1-specific IFN-gamma secretion in C57BL/6 mouse splenocytes assessed as increase in IFN-gamma level in supernatant at 100 nM treated as liposomal formulation preincubated for 30 mins with anti-CD1d monoclonal antibody followed by compound addition and measured after 72 hrs by ELISA. It counts as functional, cell-based.

The test system of data set [3] is Splenocyte. The data set can be described thus: Induction of Th2-specific IL-4 secretion in C57BL/6 mouse splenocytes assessed as increase in IL-4 level in supernatant at 100 nM treated as liposomal formulation preincubated for 30 mins with anti-CD1d monoclonal antibody followed by compound addition and measured after 72 hrs by ELISA. It counts as functional, cell-based.

Data set [4] relates to Splenocyte. The data set can be described thus: Ex vivo induction of Natural killer T cell mediated dendritic cell activation in C57BL/6 mouse splenocytes assessed as increase in CD80 expression on CD11c-positive dendritic cells at 2.33 nmol, ip administered as single dose in liposomal formulation measured after 24 hrs by flow cytometry analysis (reference value: 8.4%). It counts as functional.

The subject of data set [5] is Splenocyte. The data set can be described thus: Ex vivo induction of Natural killer T cell mediated dendritic cell activation in C57BL/6 mouse splenocytes assessed as increase in CD86 expression on CD11c-positive dendritic cells at 2.33 nmol, ip administered as single dose in liposomal formulation measured after 24 hrs by flow cytometry analysis (reference value: 8.9%). It counts as functional.

Data set [6] deals with Splenocyte. The data set can be described thus: Ex vivo induction of Natural killer T cell mediated dendritic cell activation in C57BL/6 mouse splenocytes assessed as increase in proportion of IFN-gamma positive natural killer cells at 2.33 nmol, ip administered as single dose in liposomal formulation measured after 24 hrs by flow cytometry analysis (reference value: 2.74%). It counts as functional.

For data set [7], the system named is B16-F10. The data set can be described thus: Antitumor activity against mouse B16-F10 cells implanted in C57BL/6 mouse assessed as reduction in metastatic nodules in lung at 0.58 nmol, ip administered as single dose in liposomal formulation for 1 day followed by tumor inoculation and measured after 3 weeks. It counts as functional, organism-based. The note with it: time 22.0 day.

In data set [8] the test system is Mus musculus. The data set can be described thus: Induction of Th1/2-balanced cytokine response in BALB/c mouse assessed as increase in IFN-gamma secretion in serum at 2.33 nmol, ip administered as single dose in liposomal formulation and measured after 24 hrs by ELISA. It is filed as functional, organism-based.
Data set [9] has as its system Mus musculus. The data set can be described thus: Induction of Th1/2-balanced cytokine response in BALB/c mouse assessed as increase in IFN-gamma secretion in serum at 0.5 ug, ip administered as single dose in liposomal formulation and measured after 24 hrs by ELISA. It counts as functional, organism-based. The note with it: dose 0.5 µg.
Data set [10] relates to Mus musculus. The data set can be described thus: Induction of Th1/2-balanced cytokine response in BALB/c mouse assessed as increase in IL-4 secretion in serum at 0.5 ug, ip administered as single dose in liposomal formulation and measured after 24 hrs by ELISA. It is filed as functional, organism-based. The note with it: dose 0.5 µg.
In data set [11] the test system is Mus musculus. The data set can be described thus: Induction of Th1/2-balanced cytokine response in BALB/c mouse assessed as increase in IFN-gamma/IL-4 secretion ratio at 0.5 ug, ip administered as single dose in liposomal formulation and measured after 24 hrs by ELISA. It counts as functional, organism-based. The conditions noted are these: dose 0.5 µg.
Data set [12] has as its system Mus musculus. The data set can be described thus: Induction of Th1/2-balanced cytokine response in C57BL/6 mouse assessed as increase in IFN-gamma secretion in serum at 2.33 nmol, ip administered as single dose in liposomal formulation and measured for 48 hrs by ELISA. It counts as functional, organism-based.
Data set [13] deals with Mus musculus. The data set can be described thus: Induction of Th1/2-balanced cytokine response in C57BL/6 mouse assessed as increase in IL-4 secretion in serum at 2.33 nmol, ip administered as single dose in liposomal formulation and measured for 48 hrs by ELISA. It counts as functional, organism-based.
Data set [14] relates to Mus musculus. The data set can be described thus: Induction of Th1/2-balanced cytokine response in BALB/c mouse assessed as activation of immune cells by measuring increase in IL-12 release in serum at 2.33 nmol, ip administered as single dose in liposomal formulation and measured at 6 hrs by ELISA. It is filed as functional, organism-based.
Data set [15] in a line: Induction of Th1-specific IFN-gamma secretion in C57BL/6 mouse splenocytes assessed as fold increase in IFN-gamma level in supernatant at 1 nM treated as liposomal formulation and measured after 72 hrs by ELISA relative to alpha-galactosylceramide. It counts as functional, Splenocyte.
A short description of data set [16]: Induction of Th1-specific IFN-gamma secretion in C57BL/6 mouse splenocytes assessed as fold increase in IFN-gamma level in supernatant at 10 nM treated as liposomal formulation and measured after 72 hrs by ELISA relative to alpha-galactosylceramide. It counts as functional, Splenocyte.
In data set [17] the test system is Splenocyte. The data set can be described thus: Induction of Th2-specific IL-4 secretion in C57BL/6 mouse splenocytes assessed as increase in IL-4 level in supernatant at 1 to 10 nM treated as liposomal formulation and measured after 72 hrs by ELISA. It counts as functional, cell-based. The note with it: dose 1-10 nM.
The target in data set [18] is T1, Antigen-presenting glycoprotein CD1d (Mus musculus) (UniProt P11609+P11610). The data set can be described thus: Binding affinity to Cd1D in C57BL/6 mouse BMDC cells assessed as glycolipid presentation by measuring glycolipid/Cd1D complex formation at 100 nM treated as liposomal formulation and measured at 6 to 24 hrs by L363 cell surface staining based flow cytometry analysis. The conditions noted are these: time 6-24 hrs.

Data set [19] has as its target T1, Antigen-presenting glycoprotein CD1d (Mus musculus). The data set can be described thus: Binding affinity to Cd1D in C57BL/6 mouse BMDC cells assessed as glycolipid presentation by measuring glycolipid/Cd1D complex formation at 100 nM treated as liposomal formulation preincubated for 12 hrs and cells further recultured without compound for 2 to 12 hrs by pulse-chase analysis. It counts as cell-based.

The target is the same in data set [20]. The data set can be described thus: Binding affinity to Cd1D in intact C57BL/6 mouse BMDC cells assessed as glycolipid/Cd1D complex formation by measuring strong staining of cell membrane at 100 nM treated as liposomal formulation and measured after 18 hrs by L363 mAb staining based confocal microscopic analysis.
For data set [21], the system named is B16-F10. The data set can be described thus: Antitumor activity against mouse B16-F10 cells implanted in C57BL/6 mouse assessed as reduction in number of metastatic nodules in lung at 0.58 nmol, ip administered as single dose in liposomal formulation for 1 day followed by tumor inoculation and measured after 3 weeks relative to control. It is filed as functional. On the set-up: scale not given: the % may be the effect or the level left. The conditions noted are these: time 22 day.

For data set [22], the system named is B16-F10. The data set can be described thus: Antitumor activity against mouse B16-F10 cells implanted in C57BL/6 mouse assessed as suppression of tumor progression at 0.58 nmol, ip administered as single dose in liposomal formulation for 1 day followed by tumor inoculation and measured after 3 weeks. It counts as functional, organism-based. The conditions noted are these: time 22.0 day.

Data set [23] has as its system B16-F10. The data set can be described thus: Antitumor activity against mouse B16-F10 cells implanted in C57BL/6 mouse assessed as inhibition of lung metastasis at 0.58 nmol, ip administered as single dose in liposomal formulation for 1 day followed by tumor inoculation and measured after 3 weeks by H and E staining based analysis relative to control. It counts as functional. The conditions noted are these: time 22 day.

The test system of data set [24] is Mus musculus. The data set can be described thus: Induction of Th1/2-balanced cytokine response in BALB/c mouse assessed as fold increase in IL-4 secretion in serum at 2.33 nmol, ip administered as single dose in liposomal formulation and measured after 2 hrs by ELISA relative to control. It is filed as functional.
In data set [25] the test system is Mus musculus. The data set can be described thus: Induction of Th1/2-balanced cytokine response in BALB/c mouse assessed as fold increase in IFN-gamma secretion in serum at 2.33 nmol, ip administered as single dose in liposomal formulation and measured after 24 hrs by ELISA relative to control. It counts as functional.
The subject of data set [26] is Mus musculus. The data set can be described thus: Induction of Th1/2-balanced cytokine response in BALB/c mouse assessed as fold increase in IL-4 secretion in serum at 2.33 nmol, ip administered as single dose in liposomal formulation and measured after 6 to 48 hrs by ELISA. It counts as functional, organism-based. The note with it: time 6-48 hrs.

For the compound `CCCCCCCCCCCCCCCCCCCCCCCCCC(=O)N[C@@H](CO[C@H]1O[C@H](CO)[C@H](O)[C@H](O)[C@H]1O)[C@H](O)[C@H](O)CCCCCCCCCCCCCC` [RGI-7000], the Activity result in the data set with Splenocyte [1] is recorded as “Non-Toxic”; in the data set on Splenocyte [4], 27.6%; with Splenocyte [5] it was 32%; in the data set with Splenocyte [6], 6.11%. For the same compound, the result with Splenocyte [2] and in the data set on Splenocyte [3] was inactive. Also, the outcome in the data set on B16-F10 [7] was Active.

Take `CCCCCCCCCCCCCC[C@@H](O)[C@@H](O)[C@H](CO[C@H]1O[C@H](CO)[C@H](O)[C@H](O)[C@H]1O)NC(=O)CCCCCCCCCNS(=O)(=O)CCCCCCCCCCCCCC`: the Activity result with Splenocyte [1] was “Non-Toxic”. The result in the data set with Splenocyte [2] and in the data set on Splenocyte [3] was inactive.

Take `CCCCCCCCCCCCCC[C@@H](O)[C@@H](O)[C@H](CO[C@H]1O[C@H](CO)[C@H](O)[C@H](O)[C@H]1O)NC(=O)CCCCCCCCCCCCCNS(=O)(=O)CCCCCCCCCC`: the Activity result in the data set with Splenocyte [1] was “Non-Toxic”. Also, the outcome with Splenocyte [2] and in the data set with Splenocyte [3] was inactive.

For the compound `CCCCCCCCCCCCCC[C@@H](O)[C@@H](O)[C@H](CO[C@H]1O[C@H](CO)[C@H](O)[C@H](O)[C@H]1O)NC(=O)CCCCCCCCCCNS(=O)(=O)CCCCCCCCCCCCC`, the result in the data set with Mus musculus [8], in the data set with Mus musculus [9], in the data set with Mus musculus [10], in the data set with Mus musculus [11], in the data set on Mus musculus [12] and with Mus musculus [13] was Active. In addition, the result (with Mus musculus [14]; in data set [18]; in [19]; in [20]; in the data set with B16-F10 [7]; in the data set on B16-F10 [22]) was Active. The “fold change (FC)” value amounted to 9.6 in data set [15] and 7.7 in data set [16]. The result in the data set on Splenocyte [17], in the data set with Splenocyte [2] and in the data set with Splenocyte [3] was inactive. The Activity result with Splenocyte [1] is “Non-Toxic”; in the data set with Splenocyte [4] it was 32.9%; in the data set on Splenocyte [5], 44.6%; with Splenocyte [6] it was 11.2%; in the data set with B16-F10 [21], 82%. Besides, the “inhibition (INH)” value with B16-F10 [23] is listed as approximately 100%.

Turning to `CCCCCCCCCCCCCC[C@@H](O)[C@@H](O)[C@H](CO[C@H]1O[C@H](CO)[C@H](O)[C@H](O)[C@H]1O)NC(=O)CCCCCCCCCCCCNS(=O)(=O)CCCCCCCCCCC`, the Activity entry in the data set on Splenocyte [1] is listed as “Non-Toxic”. Besides, the result in the data set with Splenocyte [2] and in the data set with Splenocyte [3] was inactive.

As for `CCCCCCCCCCCCCC[C@@H](O)[C@@H](O)[C@H](CO[C@H]1O[C@H](CO)[C@H](O)[C@H](O)[C@H]1O)NC(=O)CCCCCCCCCCCNS(=O)(=O)CCCCCCCCCCCC`, the “fold change (FC)” value was found to be 4.7 in the data set with Mus musculus [24], 7 in the data set with Mus musculus [25], 6.2 in data set [15] and 4.7 in data set [16]. Further, the result with Mus musculus [9], in the data set with Mus musculus [10], in the data set on Mus musculus [11], with Mus musculus [12], in the data set with Mus musculus [13] and in the data set with Mus musculus [14] was Active. Moreover, the outcome (in [18]; in data set [20]; in the data set with B16-F10 [7]) was Active. For the same compound, the result in the data set on Splenocyte [17], in the data set on Splenocyte [2], in the data set on Splenocyte [3] and with Mus musculus [26] was inactive. Besides, the Activity entry in the data set with Splenocyte [1] is on record as “Non-Toxic”; with Splenocyte [4], 33.9%; in the data set with Splenocyte [5], 46.8%; with Splenocyte [6], 12%; with B16-F10 [21], 66%.
